Laboratory results as given in US20250382298A1, “NITROGEN-CONTAINING COMPOUND AND USE THEREOF” (SUZHOU GENHOUSE BIO CO., LTD., priority 2022, published 2025).

Each compound was assayed against hERG potassium channel (Homo sapiens (Human), UniProt Q12809) (assay: hERG whole-cell patch clamp (Qpatch) in HEK293 cells). Settings: top concentration 30 μM.
Type: cell-based
Protocol: HEK293 cells were cultured in a DMEM medium containing 10% fetal bovine serum and 0.8 mg/mL G418 at 37° C. with 5% CO2. The cells were digested by TrypLE™ Express and then centrifuged. The cell density was adjusted to 2×10^6 cells/ml. The cells were then gently mixed for 15-20 min using a shaker equilibrated at room temperature, and subjected to patch clamping on a machine. The medium of the prepared cells was replaced with extracellular fluid. The intracellular fluid and the extracellular fluid were taken from the fluid pool, and added to the intracellular fluid pool and the cell and test substance pool of the QPlate chip, respectively. The voltage stimulation of the whole-cell hERG potassium current was recorded by the whole-cell patch clamp, and the experimental data was collected and stored by Qpatch. The test compound was 3-fold diluted starting from 30 μM to obtain 6 concentration points, each for two administrations over a period of at least 5 min. The current detected in compound-free extracellular fluid for each cell served as its own control group, and the detection was repeated at least twice independently using two cells per concentration. All electrophysiological experiments were performed at […].
For data analysis, the current after the action of each drug concentration and the current of the blank control were standardize
and then the inhibition rate corresponding to each drug concentration was calculated
The mean and standard error were calculated for each concentration, and the half maximal inhibitory concentration of each compound was calculated:
The dose-dependent effect was subjected to non-linear fitting using the above equation, where Y represents the inhibition rate, C represents the concentration of the test substance, IC50 is the half maximal inhibitory concentration, and HillSlope represents the Hill coefficient. Curve fitting and calculation of IC50 were performed using the Graphpad software.

Sequence of hERG potassium channel (Q12809 whole entry): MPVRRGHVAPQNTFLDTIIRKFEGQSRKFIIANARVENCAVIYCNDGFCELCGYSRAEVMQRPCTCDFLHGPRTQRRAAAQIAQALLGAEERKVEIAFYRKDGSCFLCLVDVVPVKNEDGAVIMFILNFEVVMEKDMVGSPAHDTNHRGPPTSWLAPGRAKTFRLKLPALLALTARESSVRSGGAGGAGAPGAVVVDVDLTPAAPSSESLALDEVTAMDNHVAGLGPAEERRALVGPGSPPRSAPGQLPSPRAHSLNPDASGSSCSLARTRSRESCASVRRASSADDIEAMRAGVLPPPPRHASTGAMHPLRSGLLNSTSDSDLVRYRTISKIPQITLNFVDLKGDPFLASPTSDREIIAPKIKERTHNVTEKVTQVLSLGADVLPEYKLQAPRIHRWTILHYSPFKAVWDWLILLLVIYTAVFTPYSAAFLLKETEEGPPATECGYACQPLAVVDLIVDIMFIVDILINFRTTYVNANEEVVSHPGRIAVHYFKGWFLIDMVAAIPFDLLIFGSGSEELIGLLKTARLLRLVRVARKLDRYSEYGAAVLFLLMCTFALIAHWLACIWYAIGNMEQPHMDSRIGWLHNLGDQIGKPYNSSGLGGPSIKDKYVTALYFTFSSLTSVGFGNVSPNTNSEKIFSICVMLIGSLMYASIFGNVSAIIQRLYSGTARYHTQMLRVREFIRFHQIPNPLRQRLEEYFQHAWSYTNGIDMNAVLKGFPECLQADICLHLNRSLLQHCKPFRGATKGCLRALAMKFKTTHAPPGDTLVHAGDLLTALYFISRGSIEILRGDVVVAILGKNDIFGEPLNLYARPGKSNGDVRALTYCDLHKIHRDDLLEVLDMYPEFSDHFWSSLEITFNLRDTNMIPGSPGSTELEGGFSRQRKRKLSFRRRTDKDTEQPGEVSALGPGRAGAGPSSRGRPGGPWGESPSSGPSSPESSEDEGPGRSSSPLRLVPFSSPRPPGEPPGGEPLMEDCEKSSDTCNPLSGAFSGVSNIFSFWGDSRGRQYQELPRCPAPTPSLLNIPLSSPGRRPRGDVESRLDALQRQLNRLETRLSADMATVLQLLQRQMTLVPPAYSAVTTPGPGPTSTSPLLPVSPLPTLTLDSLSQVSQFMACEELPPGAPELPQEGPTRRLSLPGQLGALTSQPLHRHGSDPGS

SMILES | IC50 [µM]
O=C(Nc1cn2ccnc2c(N2CCC(F)(F)CC2)n1)c1ccc(NS(=O)(=O)CCO)cc1N1CCC2(CC1)CC2 [Compound 8] | > 30
O=C(Nc1cc2ccccc2c(N2CCC(F)(F)CC2)n1)c1ccc(NS(=O)(=O)CCO)cc1N1CCC2(CC1)CC2 [Compound 6] | > 30
O=C(Nc1cc2cccnc2c(N2CCC(F)(F)CC2)n1)c1ccc(NS(=O)(=O)CCO)cc1N1CCC2(CC1)CC2 [Compound 21] | > 30
CS(=O)(=O)Nc1ccc(C(=O)Nc2cn3ccnc3c(N3CCC(F)(F)CC3)n2)c(N2CC3CCC(C3)C2)c1 [Compound 19] | > 30

What follows are compounds tested on Human colon cancer HT-29 cells (assay: Pharmacodynamic experiment in mice, subcutaneous HT-29 tumor). Settings: 20 mpk BID intragastric, after 16 days of administration, HT-29 subcutaneous tumor in mice.
Type: in vivo
Protocol: Human colon cancer HT-29 cells were cultured in monolayer in vitro under the following conditions: DMEM medium containing 10% fetal bovine serum and 1% penicillin and streptomycin, at 37° C. with 5% CO2. The cells were digested with trypsin three times a week for passaging. When the saturation degree of the cells was 80%-90%, the cells were collected, counted, and inoculated, 0.1 mL (1×10^6 cells) of HT-29 cells were subcutaneously inoculated on the tight back of each mouse. On day 11 after inoculation of the cells, the mean tumor volume reached 325 mm^3. The mice were randomly grouped for administration (the animals were divided into an administration group and a control group, with 6 animals in each group). The day of grouping was defined as d0, and intragastric administration was started on d1. The administration was performed twice daily at an administration volume of 10 mL/kg. Vehicle control was adminstered to the control group. The tumor volume was measured 2-3 times per week, and meanwhile, the mice were weighed and the data were recorded; daily observations were made to record the body surface signs of the mice. After the experiment was completed, the tumors were removed, weighed, and photographed for recording.
Calculation formula for tumor volume: […]

SMILES | TGI [%]
CS(=O)(=O)Nc1ccc(C(=O)Nc2cc3cc[nH]c3c(N3CCC(F)(F)CC3)n2)c(N2CCC3(CC2)CC3)c1 [Compound 47] | 108.84
O=C(Nc1cn2c(F)cnc2c(N2CCC(F)(F)CC2)n1)c1ccc(NS(=O)(=O)CCO)cc1N1CCC2(CC1)CC2 [Compound 34] | 105.10
CS(=O)(=O)Nc1ccc(C(=O)Nc2cn3ccnc3c(N3CCC(F)(F)CC3)n2)c(N2CC3CCC(C3)C2)c1 [Compound 19] | 111.82
